From patent US20260365662A1, “ISOANDROGRAPHOLIDE ANALOGS AND METHOD FOR TREATMENT USING THE SAME” (Enveda Therapeutics, Inc., priority 2023, published 2026)
Values belong to the molecule of their own block, whether it stands above or below them. Non-standard residues stand in square brackets, D forms with d. Residues, ends and D or L forms follow the SMILES beside them. *: point of attachment. Bz = O=C(c1ccccc1)*

Columns and labels:
mice [1] = test: MC903-induced atopic dermatitis mouse model (Example 11); assay type: in vivo; conditions: 3, 10, 30 mpk PO, BID, MC903, Day 14
Experimental: From Day 1 to Day 14, 2 nmol in 100% ethanol, 50 μl/mouse/back skin (MC903) was administered every other day to mice to induce atopic dermatitis. From Day 1 to Day 14, mice were treated with Compound 1 or clobetasol. At Day 14, the mice were euthanized.
FIGS. 11A-11C illustrate the effects of Compound 1 at 3 mpk, 10 mpk, and 30 mpk (PO, BID) as compared to normal control, vehicle control, and 0.05% clobetasol (topical, QD) (comparative) on atopic dermatitis in a mouse model.

mice [2] = test: Chlorhexidine gluconate-induced peritoneal fibrosis model; assay type: in vivo, mouse; conditions: 10, 30, 100 mpk, 0.1% CG, Day 22
Experimental: From Day 1 to Day 21, 0.1% w/w of chlorhexidine gluconate (CG) in water was administered, every other day, to the mice by PO to induce peritoneal fibrosis. From Day 1 to Day 21, mice were treated with Compound 1 or an inhibitor of TGFβ receptor I (ALK5) (SB525334). At Day 22, the mice were euthanized.
FIGS. 9A and 9B illustrate the effect of Compound 1 at 10, mpk, 30, mpk, and 100 mpk as compared to sham control, 0.1% chlorhexidine gluconate (CG) and vehicle, and an inhibitor of TGFβ receptor I (ALK5) (SB525334) at 30 mpk (comparative), and mesalamine at 50 mpk (comparative) on average peritoneal thickness and α-SMA expression in a mouse model of peritoneal fibrosis.

mice [3] = test: DSS mouse model of colitis; assay type: in vivo; conditions: 30 mpk, 2% DSS, Day 8
Experimental: From Day-3 to Day 8, mice were treated with Compound 1, fingolimod, or mesalamine. From Day-3 to Day 0, mice were randomized and acclimated to their environment while assessing a disease activity index (DAI). At Day 1, 2% w/w of DSS in water was administered to the mice by PO. From Day 1 to Day 7, DAI continued to be assessed. At Day 8, the mice were euthanized post the final dose of Compound 1, fingolimod, or mesalamine.
FIGS. 8A-8D present the efficacy of Compound 1 at 30 mpk as compared to vehicle control, DSS control, fingolimod at 1 mpk (comparative), and mesalamine at 50 mpk (comparative) in a DSS mouse model of colitis. The graphs show the effect of Compound 1 on disease activity index, stool consistency, rectal bleeding index, and combined histopathology.

mice [4] = test: Bleomycin-induced pulmonary fibrosis model, prophylactic and treatment groups (Example 3); assay type: in vivo, mouse
Experimental: Prophylactic group (P): At Day 0, prophylactic treatment of mice (P) with Compound 1 or pirfenidone by PO was performed. From Day 0 to Day 20, the prophylactically treated mice (P) were intratracheally instilled with bleomycin. At Day 21, the mice (P) were euthanized.
Treatment group (T): Likewise, from Day 0 to Day 7, naïve mice (T) were intratracheally instilled with bleomycin. At Day 7, the naïve mice were treated with Compound 1. Bleomycin instillation continued to Day 20. At Day 21, the mice (T) were euthanized.
FIGS. 2A-2D and FIGS. 3A-3G illustrate the therapeutic effects of Compound 1 at 10 mpk (P), 30 mpk (P), 100 mpk (P), and 100 mpk (T), as compared to a normal control, treatment-free control (bleomycin), and pirfenidone (comparative) at 100 mpk (P) in a bleomycin-induced model of pulmonary fibrosis.

mice [5] = test: Imiquimod (IMQ) psoriasis mouse model; assay type: in vivo; conditions: 30 mpk P.O., BID, 5% imiquimod, Day 0 to Day 7
Experimental: From Day 0 to Day 7, 5% w/w of imiquimod (IMQ) in water was administered to the mice by PO to induce psoriasis. From Day 0 to Day 7, mice were treated with Compound 1, clobetasol, or dexamethasone. At Day 7, the mice were euthanized.
FIGS. 10A and 10B illustrate the effect of Compound 1 at 30 mpk (P.O., BID) as compared to naive control, vehicle control, 0.05% clobetasol, and dexamethasone at 1 mpk (P.O., QD) on psoriasis in a mouse model. The graphs show the changes in ear thickness and Psoriasis Area and Severity Index (PASI) score over time.

human neutrophils [6] = test: IL-8 induced neutrophil chemotaxis; assay type: cell-based; conditions: for IC50: IL-8 (2 nM)
Experimental: (§1) Freshly isolated healthy human neutrophils were isolated and utilized. The neutrophils were treated with IL-8 at 2 nM or fMLP at 100 nM to induced chemotaxis.
(§2) FIGS. 7A and 7B display the percentage of inhibition of 2 nm of IL-8 induced chemotaxis at different compound concentrations of Compound 3 as compared to Navarixin (comparative). FIGS. 7C and 7D display the percentage of inhibition of 100 nm fMLP induced chemotaxis at different compound concentrations of Compound 3 as compared to HCH6-1 (comparative). Table 3 below provides the IC50 values for each stimulus, providing a comparative measure of the compounds' efficacy.

mice [7] = test: Bleomycin-induced inflammation and cell counts, 10 days (Example 5); assay type: in vivo, mouse; conditions: 3, 10, 30 mpk PO, Day 10
Experimental: At Day 0, prophylactic treatment of mice with Compound 3 or pirfenidone by PO was performed. From Day 0 to Day 9, the prophylactically treated mice were intratracheally instilled with bleomycin. At Day 10, the mice were euthanized.
As shown in FIGS. 5A-5G, the impact of Compound 3 at 3 mpk, 10 mpk, and 30 mpk as compared to normal control, treatment-free control (bleomycin), and pirfenidone (comparative) at 100 mpk on various cell counts associated with inflammation was evaluated. The bar graphs compare alveolar macrophage counts, neutrophil counts, lymphocyte counts, inflammation score, eotaxin (BALF), INFγ (lung), and IL-6 (lung).

human neutrophils [8] = test: fMLP induced neutrophil chemotaxis; assay type: cell-based; conditions: for IC50: fMLP (100 nM), Donor 1
Experimental: as §1, §2

[9] = tested on: human precision-cut lung slices; test: Inflammation and fibrosis biomarkers in human precision-cut lung slices; assay type: cell-based; conditions: 5 μM and 50 uM, hPCLS
Experimental: Cryopreserved human precision-cut lung slices (hPCLS) were prepared and used to analyze biomarkers in inflammatory and fibrotic models. Information of the donors that provided the hPCLS is provided below.
FIGS. 6A-6D illustrate the dose-dependent impact of Compound 3 at 5 μM and 50 uM as compared to vehicle control, nintedanib at 2.5 μM (comparative), and pirfenidone at 2.5 uM (comparative) on biomarkers associated with inflammation and fibrosis in human pulmonary cells.

mice [10] = test: Bleomycin-induced pulmonary fibrosis model, prophylactic, 21 days (Example 2); assay type: in vivo, mouse; conditions: PO, Day 21
Experimental: At Day 0, prophylactic treatment of mice with Compound 3 or pirfenidone by PO was performed. From Day 0 to Day 20, the prophylactically treated mice were intratracheally instilled with bleomycin. At Day 21, the mice were euthanized.
As depicted in FIGS. 1A-1F, a series of bar graphs illustrate the reduction in fibrotic symptoms in a bleomycin-induced pulmonary fibrosis model upon treatment with Compound 3 at 1 mpk, 3 mpk, 10 mpk, and 100 mpk as compared to a normal control, treatment-free control (bleomycin), and pirfenidone (comparative) at 100 mpk. Parameters such as collagen deposition, collagen accumulation, collagen fiber formation, inflammatory cytokine expression, and inflammatory cell infiltration were measured.

mice [11] = test: LPS-induced acute lung injury model (Example 4); assay type: in vivo, mouse; conditions: 30 mpk PO, aerosolized LPS 1 mg/mL, 4 hours
Experimental: At time point −1 hour, prophylactic treatment of mice by PO with Compound 3 or dexamethasone was performed. From time point −0.5 hours to 0 hours, neutrophil activation was induced with aerosolized LPS at 1 mg/mL. At timepoint 4 hours, blood, BALF, and lung tissue were harvested.
FIGS. 4A-4G present the effects of Compound 3 at 30 mpk as compared to naive control, treatment-free control (LPS), and dexamethasone (comparative) at 5 mpk on inflammatory cytokines in a lipopolysaccharide (LPS)-induced acute lung injury model. The bar graphs compare the levels of TNF-α, IL-6, IL-36γ, Total cell count (BALF), neutrophils (BALF), neutrophils (blood), and eosinophils (BALF), MIP-2.

[12] = 10, 30, 100 mpk (P) and 100 mpk (T), bleomycin

Compound: C[C@@]1(C#N)[C@H](O)CC[C@]2(C)[C@@H]1CC[C@@]1(C)O[C@H](C3=CCOC3=O)C[C@@H]21 [Compound 1, (2S,3aR,5aS,6R,7R,9aR,9bS)-7-hydroxy-3a,6,9a-trimethyl-2-(2-oxo-2,5-dihydrofuran-3-yl) dodecahydronaphtho[2,1-b]furan-6-carbonitrile]
dermatitis severity (mice [1]): decrease in dermatitis severity
skin thickness (mice [1]): decrease
average peritoneal thickness (mice [2]): reduction
α-SMA expression (mice [2]): reduction
symptoms of colitis, such as weight loss and increased disease severity (mice [3]): effectively mitigate the symptoms of colitis
Ashcroft score (mice [4]; [12]): lower the Ashcroft score
hydroxyproline content (mice [4]; [12]): reduce hydroxyproline content
inflammatory cell infiltration in lung tissue (mice [4]; [12]): decrease inflammatory cell infiltration
fibrosis and lung tissue morphology (histology) (mice [4]; H&E staining, 100× magnification, compared to control): reduced fibrosis and improved lung tissue morphology
skin condition (mice [5]): improvements in skin condition
symptoms (ear thickness, PASI score) (mice [5]): reduction in symptoms

IC50 (human neutrophils [6]; Homo sapiens, Neutrophil, All donors): 2060 nM
IC50 (human neutrophils [6]; Homo sapiens, Neutrophil, Donor 1): 1410 nM
IC50 (human neutrophils [6]; Homo sapiens, Neutrophil, Donor 2): 3160 nM
IC50 (human neutrophils [6]; Homo sapiens, Neutrophil, Donor 3): 1620 nM
IC50 (human neutrophils [8]; Homo sapiens, Neutrophil): 798 nM
Compound: C[C@@]12CCC(=O)N[C@@](C)(C#N)[C@H]1CC[C@@]1(C)O[C@H](C3=CCOC3=O)C[C@@H]21 [Compound 3, (2S,3aR,5aS,6R,10aR,10bS)-3a,6,10a-trimethyl-8-oxo-2-(2-oxo-2,5-dihydrofuran-3-yl) dodecahydro-2H-benzofuro[5,4-c]azepine-6-carbonitrile]
inhibition of neutrophil chemotaxis (human neutrophils [6]; induced by IL-8 at 2 nM): concentration-dependent inhibition
inflammation and cell counts (mice [7]): reduction in inflammation and cell counts
inhibition of neutrophil chemotaxis (human neutrophils [8]; induced by fMLP at 100 nM): concentration-dependent inhibition
IL-6 level [9]: corresponding decrease
IL-8/CXCL8 level [9]: corresponding decrease
MCP-1/CCL-2 level [9]: corresponding decrease
collagen accumulation (mice [10]): notable decrease
collagen deposition (mice [10]): notable decrease
collagen fiber formation (mice [10]): notable decrease
inflammatory cell infiltration (mice [10]): notable decrease
inflammatory cytokine expression (mice [10]): notable decrease
cytokine levels (mice [11]): dose-dependent reduction in cytokine levels

IC50 (human neutrophils [8]): 452 nM
Compound: COC(=O)[C@@H](Cc1ccccc1)NC(=O)[C@H](Cc1c[nH]c2ccccc12)NC(=O)c1ccccc1 [HCH6-1, reference compound] (Bz-Trp-[dF]-OMe)

IC50 (human neutrophils [6]; All donors): 2360 nM
IC50 (human neutrophils [6]; Donor 1): 1230 nM
IC50 (human neutrophils [6]; Donor 2): 2690 nM
IC50 (human neutrophils [6]; Donor 3): 3160 nM
Compound: CC[C@@H](Nc1c(Nc2cccc(C(=O)N(C)C)c2O)c(=O)c1=O)c1ccc(C)o1 [Navarixin, reference compound]
